# Reference: patent US20240207263A1, “SELECTIVE MODULATORS OF ATAXIA TELA[…] (ATM) KINASE AND USES THEREOF” (priority 2021, published 2024)
# Target: ATM (Homo sapiens (Human), UniProt Q13315)
# Assay: biochemical
# Assay type: biochemical
# Conditions: read-out: ATM IC50
# From the text: Assay a): ATM Biochemical Potency
# Data was collected by Caliper.
# Sequence of ATM (Q13315 whole entry, looked up): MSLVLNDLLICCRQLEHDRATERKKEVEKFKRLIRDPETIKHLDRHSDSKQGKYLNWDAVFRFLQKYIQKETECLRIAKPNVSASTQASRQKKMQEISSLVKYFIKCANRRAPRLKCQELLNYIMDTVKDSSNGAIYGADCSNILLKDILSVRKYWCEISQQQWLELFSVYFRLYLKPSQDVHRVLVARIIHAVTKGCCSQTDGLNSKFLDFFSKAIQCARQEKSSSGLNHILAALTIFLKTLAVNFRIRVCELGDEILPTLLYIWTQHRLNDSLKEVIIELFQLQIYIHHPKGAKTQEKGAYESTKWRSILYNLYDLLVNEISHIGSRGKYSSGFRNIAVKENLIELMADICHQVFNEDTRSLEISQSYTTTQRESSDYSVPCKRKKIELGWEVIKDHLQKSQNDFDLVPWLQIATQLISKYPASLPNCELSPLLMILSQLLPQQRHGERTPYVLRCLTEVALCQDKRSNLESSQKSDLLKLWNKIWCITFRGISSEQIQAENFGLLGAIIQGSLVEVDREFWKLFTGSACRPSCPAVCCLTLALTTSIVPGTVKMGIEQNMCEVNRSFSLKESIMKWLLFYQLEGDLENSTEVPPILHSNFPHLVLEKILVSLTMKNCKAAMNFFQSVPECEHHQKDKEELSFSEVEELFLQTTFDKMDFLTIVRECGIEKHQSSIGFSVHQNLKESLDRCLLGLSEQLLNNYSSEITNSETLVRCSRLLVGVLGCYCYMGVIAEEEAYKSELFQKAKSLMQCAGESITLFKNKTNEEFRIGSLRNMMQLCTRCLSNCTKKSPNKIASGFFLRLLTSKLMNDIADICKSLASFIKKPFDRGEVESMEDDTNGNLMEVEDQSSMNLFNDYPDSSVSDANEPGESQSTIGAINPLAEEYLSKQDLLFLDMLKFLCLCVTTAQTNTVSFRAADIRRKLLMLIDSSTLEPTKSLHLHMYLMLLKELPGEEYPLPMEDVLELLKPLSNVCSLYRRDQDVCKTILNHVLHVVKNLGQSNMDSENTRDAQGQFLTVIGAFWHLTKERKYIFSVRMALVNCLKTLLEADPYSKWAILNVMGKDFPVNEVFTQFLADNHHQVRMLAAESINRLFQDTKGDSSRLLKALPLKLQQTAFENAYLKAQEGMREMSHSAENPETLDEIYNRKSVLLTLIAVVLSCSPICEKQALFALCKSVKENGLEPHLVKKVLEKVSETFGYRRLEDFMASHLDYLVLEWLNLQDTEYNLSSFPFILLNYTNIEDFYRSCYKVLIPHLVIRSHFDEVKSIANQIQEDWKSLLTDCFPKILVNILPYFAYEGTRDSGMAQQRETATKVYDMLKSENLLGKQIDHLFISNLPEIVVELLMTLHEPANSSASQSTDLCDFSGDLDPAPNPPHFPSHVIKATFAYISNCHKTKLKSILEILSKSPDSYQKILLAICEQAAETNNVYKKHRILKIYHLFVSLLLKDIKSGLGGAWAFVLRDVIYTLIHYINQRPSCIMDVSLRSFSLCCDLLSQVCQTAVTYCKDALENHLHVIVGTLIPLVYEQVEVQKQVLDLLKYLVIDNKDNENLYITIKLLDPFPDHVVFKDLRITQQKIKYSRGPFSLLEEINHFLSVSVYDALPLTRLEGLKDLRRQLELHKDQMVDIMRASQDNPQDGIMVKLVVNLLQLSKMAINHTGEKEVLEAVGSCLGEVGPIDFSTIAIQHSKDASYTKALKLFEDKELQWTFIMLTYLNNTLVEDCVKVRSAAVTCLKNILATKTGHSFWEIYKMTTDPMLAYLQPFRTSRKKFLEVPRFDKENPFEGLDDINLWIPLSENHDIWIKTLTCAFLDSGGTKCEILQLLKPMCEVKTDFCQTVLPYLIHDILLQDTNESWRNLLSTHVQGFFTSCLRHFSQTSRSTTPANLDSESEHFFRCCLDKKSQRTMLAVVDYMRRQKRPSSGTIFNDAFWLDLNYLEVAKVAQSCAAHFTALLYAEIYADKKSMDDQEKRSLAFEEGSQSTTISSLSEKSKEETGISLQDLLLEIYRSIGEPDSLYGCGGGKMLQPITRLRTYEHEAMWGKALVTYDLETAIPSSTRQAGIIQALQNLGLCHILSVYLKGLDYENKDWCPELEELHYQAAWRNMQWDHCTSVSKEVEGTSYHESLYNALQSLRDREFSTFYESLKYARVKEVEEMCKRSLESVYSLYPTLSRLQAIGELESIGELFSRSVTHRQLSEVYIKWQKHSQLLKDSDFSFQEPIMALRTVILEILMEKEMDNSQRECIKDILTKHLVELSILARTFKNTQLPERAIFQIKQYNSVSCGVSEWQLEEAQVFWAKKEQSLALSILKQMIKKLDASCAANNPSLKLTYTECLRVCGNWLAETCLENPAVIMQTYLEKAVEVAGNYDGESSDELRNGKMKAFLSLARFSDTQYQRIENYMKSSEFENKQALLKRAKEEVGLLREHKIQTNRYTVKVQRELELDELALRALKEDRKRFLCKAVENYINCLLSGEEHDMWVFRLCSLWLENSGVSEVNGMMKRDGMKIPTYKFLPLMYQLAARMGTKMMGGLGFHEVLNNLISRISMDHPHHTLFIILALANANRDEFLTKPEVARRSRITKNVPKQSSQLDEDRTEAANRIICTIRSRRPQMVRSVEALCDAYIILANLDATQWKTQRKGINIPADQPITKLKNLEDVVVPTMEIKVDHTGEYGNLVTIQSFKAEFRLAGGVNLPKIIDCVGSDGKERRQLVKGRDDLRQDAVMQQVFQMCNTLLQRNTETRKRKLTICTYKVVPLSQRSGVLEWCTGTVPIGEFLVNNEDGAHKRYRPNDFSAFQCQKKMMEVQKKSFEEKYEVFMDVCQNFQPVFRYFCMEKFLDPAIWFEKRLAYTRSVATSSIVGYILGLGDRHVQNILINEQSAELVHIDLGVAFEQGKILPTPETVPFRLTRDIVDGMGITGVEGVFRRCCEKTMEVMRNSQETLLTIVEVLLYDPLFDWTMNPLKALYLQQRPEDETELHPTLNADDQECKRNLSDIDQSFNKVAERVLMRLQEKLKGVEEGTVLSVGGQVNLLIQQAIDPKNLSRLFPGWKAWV
row,Structure (SMILES),IC50
1,"CC(C)n1c(=O)n(C)c2nnc3ccc(-c4ccc(COCCN5CCC[C@H]5C)nc4)cc3c21 [Example 35, (R)-1-isopropyl-3-methyl-8-(6-((2-(2-methylpyrrolidin-1-yl)ethoxy)methyl)pyridin-3-yl)-1H-imidazo[4,5-c]cinnolin-2(3H)-one]",0.043 µM
2,"CC(C)n1c(=O)n(C)c2nnc3ccc(-c4ccc(COCCN5CC(N(C)C)C5)nc4)cc3c21 [Example 37, 8-(6-((2-(3-(dimethylamino)azetidin-1-yl)ethoxy)methyl)pyridin-3-yl)-1-isopropyl-3-methyl-1H-imidazo[4,5-c]cinnolin-2(3H)-one]",0.078 µM
3,"CC(C)n1c(=O)n(C)c2nnc3ccc(-c4ccc(COCCN5CCCC(F)C5)nc4)cc3c21 (stereo not drawn) [Example 38, 8-(6-((2-(3-fluoropiperidin-1-yl)ethoxy)methyl)pyridin-3-yl)-1-isopropyl-3-methyl-1H-imidazo[4,5-c]cinnolin-2(3H)-one]",0.057 µM
4,"CC(C)n1c(=O)n(C)c2nnc3ccc(-c4ccc(COCCN5CC6CCC5C6)nc4)cc3c21 (stereo not drawn) [Example 39, 8-(6-((2-(2-azabicyclo[2.2.1]heptan-2-yl)ethoxy)methyl)pyridin-3-yl)-1-isopropyl-3-methyl-1H-imidazo[4,5-c]cinnolin-2(3H)-one]",0.073 µM
5,"CC(C)n1c(=O)n(C)c2nnc3ccc(-c4ccc(COCCN5CCCC6(CCC6)C5)nc4)cc3c21 [Example 40, 8-(6-((2-(6-azaspiro[3.5]nonan-6-yl)ethoxy)methyl)pyridin-3-yl)-1-isopropyl-3-methyl-1H-imidazo[4,5-c]cinnolin-2(3H)-one]",0.024 µM
6,"COC1CCCN(CCOCc2ccc(-c3ccc4nnc5c(c4c3)n(C(C)C)c(=O)n5C)cn2)C1 (stereo not drawn) [Example 41, 1-isopropyl-8-(6-((2-(3-methoxypiperidin-1-yl)ethoxy)methyl)pyridin-3-yl)-3-methyl-1H-imidazo[4,5-c]cinnolin-2(3H)-one]",0.05 µM
7,"CC(C)n1c(=O)n(C)c2nnc3ccc(-c4ccc(COCCN5CC[C@H](N(C)C)C5)nc4)cc3c21 [Example 42, (S)-8-(6-((2-(3-(dimethylamino)pyrrolidin-1-yl)ethoxy)methyl)pyridin-3-yl)-1-isopropyl-3-methyl-1H-imidazo[4,5-c]cinnolin-2(3H)-one]",0.044 µM
8,"COC1CCN(CCOCc2ccc(-c3ccc4nnc5c(c4c3)n(C(C)C)c(=O)n5C)cn2)CC1 [Example 44, 1-isopropyl-8-(6-((2-(4-methoxypiperidin-1-yl)ethoxy)methyl)pyridin-3-yl)-3-methyl-1H-imidazo[4,5-c]cinnolin-2(3H)-one]",0.012 µM
9,"CC(C)n1c(=O)n(C)c2nnc3ccc(-c4ccc(COCCN5[C@H](C)CC[C@@H]5C)nc4)cc3c21 [Example 45, 8-(6-((2-((2R,5S)-2,5-dimethylpyrrolidin-1-yl)ethoxy)methyl)pyridin-3-yl)-1-isopropyl-3-methyl-1H-imidazo[4,5-c]cinnolin-2(3H)-one]",0.084 µM
10,"CC(C)n1c(=O)n(C)c2nnc3ccc(-c4ccc(COCCN5CC[C@@H](N(C)C)C5)nc4)cc3c21 [Example 46, (R)-8-(6-((2-(3-(dimethylamino)pyrrolidin-1-yl)ethoxy)methyl)pyridin-3-yl)-1-isopropyl-3-methyl-1H-imidazo[4,5-c]cinnolin-2(3H)-one]",0.076 µM
11,"CC(C)n1c(=O)n(C)c2nnc3ccc(-c4ccc(COCCN5CCC(OC(F)(F)F)CC5)nc4)cc3c21 [Example 47, 1-isopropyl-3-methyl-8-(6-((2-(4-(trifluoromethoxy)piperidin-1-yl)ethoxy)methyl)pyridin-3-yl)-1H-imidazo[4,5-c]cinnolin-2(3H)-one]",0.0022 µM
12,"CC(C)n1c(=O)n(C)c2nnc3ccc(-c4ccc(COCCN5CC6C(C5)C6(F)F)nc4)cc3c21 (stereo not drawn) [Example 48, 8-(6-((2-(6,6-difluoro-3-azabicyclo[3.1.0]hexan-3-yl)ethoxy)methyl)pyridin-3-yl)-1-isopropyl-3-methyl-1H-imidazo[4,5-c]cinnolin-2(3H)-one]",0.017 µM
13,"CC(C)n1c(=O)n(C)c2nnc3ccc(-c4ccc(COCCN5CCC6(CCC6)CC5)nc4)cc3c21 [Example 49, 8-(6-((2-(7-azaspiro[3.5]nonan-7-yl)ethoxy)methyl)pyridin-3-yl)-1-isopropyl-3-methyl-1H-imidazo[4,5-c]cinnolin-2(3H)-one]",0.0028 µM
14,"CC(C)n1c(=O)n(C)c2nnc3ccc(-c4ccc(COCCN5CC[C@@H](OC(F)F)C5)nc4)cc3c21 [Example 50, (R)-8-(6-((2-(3-(difluoromethoxy)pyrrolidin-1-yl)ethoxy)methyl)pyridin-3-yl)-1-isopropyl-3-methyl-1H-imidazo[4,5-c]cinnolin-2(3H)-one]",0.011 µM
15,"CC(C)n1c(=O)n(C)c2nnc3ccc(-c4ccc(COCCN5CC[C@H](OC(F)F)C5)nc4)cc3c21 [Example 51, (S)-8-(6-((2-(3-(difluoromethoxy)pyrrolidin-1-yl)ethoxy)methyl)pyridin-3-yl)-1-isopropyl-3-methyl-1H-imidazo[4,5-c]cinnolin-2(3H)-one]",0.0076 µM
16,"CC(C)n1c(=O)n(C)c2nnc3ccc(-c4ccc([C@@H](C)OCCN5CCC(OC(F)(F)F)CC5)nc4)cc3c21 [Example 58, (R)-1-isopropyl-3-methyl-8-(6-(1-(2-(4-(trifluoromethoxy)piperidin-1-yl)ethoxy)ethyl)pyridin-3-yl)-1H-imidazo[4,5-c]cinnolin-2(3H)-one]",0.0014 µM
17,CC(C)n1c(=O)n(C)c2nnc3ccc(-c4ccc([C@@H](C)OCCN5CCC(OC(F)(F)F)C5)nc4)cc3c21 (stereo partly drawn) [Example 60],0.0028 µM
18,"CC(C)n1c(=O)n(C)c2nnc3ccc(-c4ccc([C@@H](C)OCCN5CCC(C)(C)C5)nc4)cc3c21 [Example 61, (R)-8-(6-(1-(2-(3,3-dimethylpyrrolidin-1-yl)ethoxy)ethyl)pyridin-3-yl)-1-isopropyl-3-methyl-1H-imidazo[4,5-c]cinnolin-2(3H)-one]",0.0034 µM
19,"CO[C@@H]1CCN(CCO[C@@H](C)c2ccc(-c3ccc4nnc5c(c4c3)n(C(C)C)c(=O)n5C)cn2)C1 [Example 64, 1-isopropyl-8-(6-((S)-1-(2-((R)-3-methoxypyrrolidin-1-yl)ethoxy)ethyl)pyridin-3-yl)-3-methyl-1H-imidazo[4,5-c]cinnolin-2(3H)-one]",0.019 µM
20,"CO[C@H]1CCN(CCO[C@@H](C)c2ccc(-c3ccc4nnc5c(c4c3)n(C(C)C)c(=O)n5C)cn2)C1 [Example 65, 1-isopropyl-8-(6-((S)-1-(2-((S)-3-methoxypyrrolidin-1-yl)ethoxy)ethyl)pyridin-3-yl)-3-methyl-1H-imidazo[4,5-c]cinnolin-2(3H)-one]",0.167 µM
21,"CC(C)n1c(=O)n(C)c2nnc3ccc(-c4ccc([C@@H](C)OCCN5CC6CC6C5)nc4)cc3c21 (stereo partly drawn) [Example 66, 8-(6-((1R)-1-(2-(3-azabicyclo[3.1.0]hexan-3-yl)ethoxy)ethyl)pyridin-3-yl)-1-isopropyl-3-methyl-1H-imidazo[4,5-c]cinnolin-2(3H)-one]",0.01 µM
22,"CC(C)n1c(=O)n(C)c2nnc3ccc(-c4ccc([C@H](C)OCCN5CC6CC6C5)nc4)cc3c21 (stereo partly drawn) [Example 67, 8-(6-((1S)-1-(2-(3-azabicyclo[3.1.0]hexan-3-yl)ethoxy)ethyl)pyridin-3-yl)-1-isopropyl-3-methyl-1H-imidazo[4,5-c]cinnolin-2(3H)-one]",0.158 µM
23,"CC(C)n1c(=O)n(C)c2nnc3ccc(-c4ccc([C@H](C)OCCN5CCC(F)CC5)nc4)cc3c21 [Example 68, (S)-8-(6-(1-(2-(4-fluoropiperidin-1-yl)ethoxy)ethyl)pyridin-3-yl)-1-isopropyl-3-methyl-1H-imidazo[4,5-c]cinnolin-2(3H)-one]",0.16 µM
24,"CC(C)n1c(=O)n(C)c2nnc3ccc(-c4ccc([C@H](C)OCCN5CCC(C)(C)CC5)nc4)cc3c21 [Example 72, (S)-8-(6-(1-(2-(4,4-dimethylpiperidin-1-yl)ethoxy)ethyl)pyridin-3-yl)-1-isopropyl-3-methyl-1H-imidazo[4,5-c]cinnolin-2(3H)-one]",0.05 µM
25,"CC(C)n1c(=O)n(C)c2nnc3ccc(-c4ccc([C@H](C)OCCN5CCC(F)(F)CC5)nc4)cc3c21 [Example 74, (S)-8-(6-(1-(2-(4,4-difluoropiperidin-1-yl)ethoxy)ethyl)pyridin-3-yl)-1-isopropyl-3-methyl-1H-imidazo[4,5-c]cinnolin-2(3H)-one]",0.179 µM
26,"CC(C)n1c(=O)n(C)c2nnc3ccc(-c4ccc([C@@H](C)OCCN5CCC(F)(F)CC5)nc4)cc3c21 [Example 75, (R)-8-(6-(1-(2-(4,4-difluoropiperidin-1-yl)ethoxy)ethyl)pyridin-3-yl)-1-isopropyl-3-methyl-1H-imidazo[4,5-c]cinnolin-2(3H)-one]",0.019 µM
27,"CC(C)n1c(=O)n(C)c2nnc3ccc(-c4ccc([C@@H](C)OCCN5CC[C@H](C)C5)nc4)cc3c21 [Example 78, 1-isopropyl-3-methyl-8-(6-((R)-1-(2-((S)-3-methylpyrrolidin-1-yl)ethoxy)ethyl)pyridin-3-yl)-1H-imidazo[4,5-c]cinnolin-2(3H)-one]",0.0064 µM
28,"CC(C)n1c(=O)n(C)c2nnc3ccc(-c4ccc([C@@H](C)OCCN5CC[C@@H](S(C)(=O)=O)C5)nc4)cc3c21 [Example 79, 1-isopropyl-3-methyl-8-(6-((R)-1-(2-((R)-3-(methylsulfonyl)pyrrolidin-1-yl)ethoxy)ethyl)pyridin-3-yl)-1H-imidazo[4,5-c]cinnolin-2(3H)-one]",0.037 µM
29,"CC(C)n1c(=O)n(C)c2nnc3ccc(-c4ccc([C@@H](C)OCCN5CC6(COC6)C5)nc4)cc3c21 [Example 81, (R)-8-(6-(1-(2-(2-oxa-6-azaspiro[3.3]heptan-6-yl)ethoxy)ethyl)pyridin-3-yl)-1-isopropyl-3-methyl-1H-imidazo[4,5-c]cinnolin-2(3H)-one]",0.003 µM
30,"CC(C)n1c(=O)n(C)c2nnc3ccc(-c4ccc([C@@H](C)OCCN5CCC6(CCO6)CC5)nc4)cc3c21 [Example 82, (R)-8-(6-(1-(2-(1-oxa-7-azaspiro[3.5]nonan-7-yl)ethoxy)ethyl)pyridin-3-yl)-1-isopropyl-3-methyl-1H-imidazo[4,5-c]cinnolin-2(3H)-one]",0.0034 µM
